According to patent publication US20260133203A1, “DETECTION OF FUMARATE-DERIVED MODIFICATION IN A TEST SAMPLE” (UNIVERSITY OF SOUTH CAROLINA, priority 2017, published 2026):
Structures can show the parent of a compound that is named as a salt.

Tested on: N1E-115 neurons
Experiment: LC-MS/MS identification of succinated proteins in N1E-115 neurons
Assay type: cell-based, mouse
Settings: DMF-treated N1E-115 neurons
Experimental: N1E-115 cells (subclone N1E-115-1 neuroblastoma cells) were obtained from Sigma (08062511, St. Louis, MO). The cells were grown and expanded in non-differentiation medium (NDM): 90% DMEM (GibcoTM, Grand Island, NY) with 25 mM glucose, no pyruvate, 25 mM HEPES, 4 mM glutamine and 10% fetal bovine serum (FBS, Atlanta Biologicals, Atlanta, GA). At 80% confluence, the cells were differentiated into neurons in the presence of 2% FBS and 1.25% dimethyl sulfoxide in DMEM for 5 days. In addition to the assessment of the neuronal phenotype by light microscopy, the detection of synaptophysin protein levels was used to confirm successful differentiation. […] After gel extraction, the peptides were re-suspended in 1% acetic acid and analyzed on a DionexTM […] system (Thermo ScientificTM, Rockford, IL) coupled to an Orbitrap Velos ProTM mass spectrometer (Thermo ScientificTM, Rockford, IL). […] The data-dependent acquisition (DDA) data were analyzed using Proteome DiscovererTM 1.4 software with SEQUEST search engine against the uniprot_ref_mouse database (2014-10-03 version, 52,474 proteins) or uniprot_ref_rat database (2011-5-11 version, 39765 proteins) with Xcorr>1 validation (+2) and an allowance for 2 missed cleavages. […]

Structure (SMILES): COC(=O)/C=C/C(=O)OC [DMF, dimethyl fumarate]
- number of protein subunits modified by either DMF or MMF: 15
